Values of other authors, collected in US9238083B2, “Molecular probe for imaging of pancreatic islets and use of the same” (Kyoto University, priority 2009, dated 2016).

Columns and labels:
pancreatic islet cells = details: cited from earlier work
[1] = test system: GLP-1R-positive tumor cells; details: cited from earlier work

## Lys^40(Ahx-DTPA-^111In)Exendin-4(9-39)
Pancreatic islet cells
  uptake in pancreatic islets: about 0.4%
Pancreatic islet cells; conclusion from the uptake results
  affinity with respect to GLP-1R: low affinity
[1]
  uptake in the GLP-1R-positive tumor cells: about 7.5%
